Laboratory results from paper PMC12703733, “Probing Guanidino Pendant or Bridged Groups in Cyclic Antimicrobial Peptides Derived from Temporin L: A Strategy to Improve Efficacy against Gram-Negative Bacteria” (Journal of Medicinal Chemistry, 2025).
Where two headings read alike, the source gives them in different places. Bridge positions count the residues as written; N and C are the ends. Square brackets hold non-standard residues; d marks the D form. Peptide text beside a SMILES is read from it.

Key:
[1] = test system: Gram-negative bacteria tested; assay: MIC panel, Gram-negative strains (geometric mean); format: cell-based; conditions: geometric mean of the MICs against Gram-negative bacteria tested
Protocol: The antimicrobial efficacy of the TLcyc analogues was assessed against a representative panel of Gram-positive and Gram-negative bacterial strains, by determining their minimal inhibitory concentrations (MIC), as summarized in Table . To provide an integrated measure of antimicrobial potency, we calculated the geometric mean (GM) of MIC values across all strains (GMall), as well as separately for Gram-positive (GMGram+) and Gram-negative (GMGram–) bacteria.
Bacterial strains used in this study were the Gram-positive S. aureus ATCC 25923, S. epidermidis ATCC 12228, B. megaterium BM11, S. agalactiae ATCC 27591, E. faecalis ATCC 29212 and the Gram-negative E. coli ATCC 25922, P. aeruginosa ATCC 27853, A. baumannii ATCC 19606, E. coli D21 and P. aeruginosa PAO1. […] Bacterial cells in the mid log phase were diluted in Muller Hinton (MH) at a concentration of 2 × 10^6 cell/mL. Aliquots of 50 μL of this bacterial suspension were added to 50 μL of MH containing serial 2-fold dilutions of the peptides (from 100 to 0.19 μM) in the wells a 96-well plate. Ciprofloxacin was used as antibiotic control. The plate was then incubated at 37 °C. MICs were obtained from three identical readings of four independent experiments.

[2] = format: cell-based; conditions: Cell viability (%)
Protocol: (§1) For the evaluation of peptides’ cytotoxicity, the human immortalized keratinocytes (HaCaT cells), purchased from AddexBio (San Diego, CA, USA), and BEAS-2B were used. HaCaT cells were cultured in Dulbecco’s modified Eagle’s medium supplemented with 4 mM glutamine (DMEM), 10% heat-inactivated fetal bovine serum (FBS), and 0.1 mg/mL of penicillin and streptomycin, at 37 °C and 5% CO2. BEAS-2B cells were cultured in RPMI, supplemented with 2 mM glutamine (DMEM), 10% heat-inactivated fetal bovine serum (FBS), 1 mM sodium pyruvate, and 0.1 mg/mL of penicillin and streptomycin, at 37 °C and 5% CO2. Cytotoxicity was tested in vitro using a colorimetric assay that relies on the intracellular reduction of the yellow 3-(4,5-dimethylthiazol-2-yl)-2,5-diphenyltetrazolium bromide salt (MTT) by mitochondrial dehydrogenases of metabolically active cells in formazan crystals (purple). About 4 × 10^4 HaCaT and BEAS-2B cells, suspended in DMEM supplemented with 2% FBS, were plated in triplicate wells of a 96-well microtiter plate. The plate was incubated overnight at 37 °C and 5% CO2. Then, the cells were treated with different concentrations of the peptide (from 100 to 3.12 μM) in a fresh serum-free medium for 2 h and for a longer time (24 h). Following peptide treatment, the medium was removed, and MTT (0.5 mg/mL) solution in Hank’s buffer (136 mM NaCl, 4.2 mM Na2HPO4, 4.4 mM KH2PO4, 5.4 mM KCl, 4.1 mM NaHCO3, pH 7.2, supplemented with 20 mM D-glucose) was added to each well of the plate, that was then incubated for 4 h at 37 °C and 5% CO2. The purple formazan crystals were dissolved using acidified 2-propanol and a microplate reader (Infinite M200; Tecan, Salzburg, Austria) was used to measure the absorbance of each well at 570 nm. The percentage of cell viability was calculated compared to the control, which consisted of cells without any peptide treatment (corresponding to 100% viability) and all data represent the mean of three independent experiments ± SEM.

BEAS-2B cells = format: cell-based
Protocol: as §1

[3] = format: cell-based, P. aeruginosa
Protocol: The antibiofilm activity was evaluated as elsewhere reported. Bacteria grew at 37 °C until they reached an optical density (OD) of 0.8 (λ = 590 nm). The culture was diluted to a cell density of 1 × 10^6 colony-forming units (CFUs)/mL and aliquots of 100 μL of this suspension were dispensed into the wells of a 96-multiwell plate. After biofilm formation (incubation time = 20 h at 37 °C), all the planktonic cells were removed, and the wells were washed twice with PBS (150 μL). After washing, the wells were filled with PBS supplemented with different 2-fold serial dilutions of the tested peptides (from 50 to 1.56 μM). After peptide treatment (incubation time = 2 h at 37 °C) the wells were washed with PBS twice and filled with 150 μL of MTT (0.5 mg/mL) to evaluate biofilm viability after 4 h incubation at 37 °C. The reaction was then stopped by adding SDS (final concentration equal to 5% v/v). A microplate reader (Infinite M200; Tecan, Salzburg, Austria) was used to measure the absorbance of each well at 570 nm and the percentage of biofilm viability was calculated relative to the untreated samples.

P. aeruginosa ATCC 27853 = format: cell-based
Protocol: The ability of peptides to alter the bacterial membrane permeability of planktonic cells of S. aureus ATCC 25923 and P. aeruginosa ATCC 27853 was determined by the Sytox Green assay. Approximately 1 × 10^6 cells in 100 μL of PBS were combined with 1 μM Sytox Green in the dark for 5 min. The fluorescence intensity was monitored using a microplate reader (Infinite M200, Tecan), with excitation and emission at λ = 485 and 535 nm, respectively. Peptides were added (time = 0) at three different concentrations (i.e., 3.12, 6.25, and 12.5 μM). Increase in the fluorescence intensity is due to the binding of the dye to intracellular nucleic acids. Controls consisted of cells that were not exposed to the peptides. The values correspond to one representative experiment out of three independent experiments.

CC[C@H](C)[C@H](NC(=O)[C@H](CCCNC(=N)N)NC(=O)[C@H]1CCC(=O)NCCCC[C@H](NC(=O)[C@H](Cc2ccccc2)NC(=O)[C@H](Cc2c[nH]c3ccccc23)NC(=O)[C@@H]2CCCN2C(=O)[C@@H](NC(=O)[C@@H](N)Cc2ccccc2)C(C)C)C(=O)N[C@@H](CCCCN)C(=O)N[C@@H](Cc2ccccc2)C(=O)N[C@H](CC(C)C)C(=O)N1)C(=O)N[C@@H](CC(C)C)C(N)=O [Peptide 2, FVPWF[KKFle]RIL] (H-FVPWFKKF[dL][dE]RIL-NH2; lactam 6-10)
geometric mean GMGram– [1]: 16.4 µM | viability at 6.25 µM [2]: 107% | viability at 12.5 µM [2]: 100% | viability at 25 µM [2]: 91% | viability at 100 µM [2]: 5% | Cell viability (%) (BEAS-2B cells; 3.12 µM): 132% | Cell viability (%) (BEAS-2B cells; 6.25 µM): 119% | Cell viability (%) (BEAS-2B cells; 12.5 µM): 114% | Cell viability (%) (BEAS-2B cells; 25 µM): 102% | Cell viability (%) (BEAS-2B cells; 100 µM): 8% | viability [3]: > 70% | membrane permeabilization, Sytox Green fluorescence (in words) (P. aeruginosa ATCC 27853): lower intensity
